The text below walks through data of patent US20260022142A1, “MACROCYCLIC IMMUNOMODULATORS” (Bristol-Myers Squibb Company, priority 2022, published 2026).

Numbered stars: 1 amine (or outer) side, 2 acyl side, 3 side chain; on linkers, the order of the positions; unused ones are H or OH. Bridge positions count the residues as written; N and C are the ends. Square brackets hold non-standard residues; d marks the D form. Peptide text beside a SMILES is read from it. * marks the point of attachment. ξ: configuration not given here. Phe(3-CF3) = N[C@@H](Cc1cccc(C(F)(F)F)c1)C(=O)O; Phe(4-CONH2) = NC(=O)c1ccc(C[C@H](N)C(=O)O)cc1; Phe(4-COOH) = N[C@@H](Cc1ccc(C(=O)O)cc1)C(=O)O; Bip = N[C@@H](Cc1ccc(-c2ccccc2)cc1)C(=O)O; NH(CH2)14COOH = O=C(O)CCCCCCCCCCCCCCN*; Phe(3-Me) = Cc1cccc(C[C@H](N)C(=O)O)c1; NH(CH2)12COOH = O=C(O)CCCCCCCCCCCCN*; X4 = O=C([C@@H](N[*:1])C1CNC1)[*:2]; Val(3-OH) = CC(C)(O)[C@H](N)C(=O)O; 4Pal = N[C@@H](Cc1ccncc1)C(=O)O; Cha = N[C@@H](CC1CCCCC1)C(=O)O; Thr(3ξ) = CC(O)[C@H](N)C(=O)O; PEG4 = NCCOCCOCCOCCOCCC(=O)O; Tle = CC(C)(C)[C@H](N)C(=O)O; Carboxymethyl = O=C(O)C*; Orn = NCCC[C@H](N)C(=O)O; Aun = NCCCCCCCCCCC(=O)O; Dab = NCC[C@H](N)C(=O)O; Nva = CCC[C@H](N)C(=O)O; Dap = NC[C@H](N)C(=O)O; AEEA = NCCOCCOCC(=O)O; Piv = CC(C)(C)C(=O)*

The target of the assay is T1, PD-1/PD-L1 interaction (PE-labeled human PD-L1-Ig binding to Jurkat cell line over-expressing human PD-1) (Homo sapiens, UniProt Q15116).
T1 construct: expressed in transfected cells; host or cells: Jurkat
T1 sequence (Q15116 25-288): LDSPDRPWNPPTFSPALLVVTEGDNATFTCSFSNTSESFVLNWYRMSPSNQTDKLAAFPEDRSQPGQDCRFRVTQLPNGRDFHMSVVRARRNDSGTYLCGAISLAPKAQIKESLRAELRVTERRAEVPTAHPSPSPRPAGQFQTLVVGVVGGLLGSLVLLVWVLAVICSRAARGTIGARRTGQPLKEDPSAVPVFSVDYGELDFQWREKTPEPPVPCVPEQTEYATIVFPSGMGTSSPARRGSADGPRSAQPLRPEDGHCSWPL
Nature of the assay: Jurkat-PD-1 Cell Binding High-Content Screening Assay (CBA). Type of assay: cell-based. To be noted: Jurkat cell line over-expressing human PD-1; PE-labeled PD-L1-Ig 20 nM final; read-out: Jurkat hPD1-PDL1 IC50. A digest of the protocol: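 Binding of fluorescent PD-L1-Ig (phycoerythrin on Ig tag, 20 nM final, 1 h) measured by high-content imaging of fixed, Hoechst-counterstained Jurkat-hPD-1 cells. Compound added 2 h at 37° C beforehand, in DMEM with 10% fetal calf serum.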
Broadly, the IC50 is the concentration needed to halve the response being measured. Consider `Cc1cccc(C[C@@H]2NC(=O)[C@H](CC(=O)O)NC(=O)[C@H](Cc3ccc(OCC(=O)O)cc3)NC(=O)[C@H](CCCNC(=N)N)NC(=O)CSC[C@@H](C(=O)N[C@@H](CCN)C(=O)NCCCCCCCCCCC(=O)O)NC(=O)[C@H](CCC(N)=O)NC(=O)[C@H](C(C)C)NC(=O)[C@H](CC3CCCCC3)NC(=O)[C@H](CCN)NC(=O)[C@@H](CC(C)C)NC(=O)[C@H](CCCN)NC(=O)[C@H](Cc3ccc(O)cc3)NC(=O)[C@H](Cc3ccc(-c4ccccc4)cc3)NC(=O)[C@H](Cc3ccc(O)cc3)NC2=O)c1` [Compound 3382] ({CH2CO}-RY(Carboxymethyl)D[Phe(3-Me)]Y[Bip]Y[Orn][dL][Dab][Cha]VQC[Dab][Aun]-OH; thioether N-14), for which the IC50 came to 0.0108 µM.

In the case of `CCC[C@@H]1NC(=O)CSC[C@@H](C(=O)N[C@@H](CCN)C(=O)NCCOCCOCCOCCOCCC(=O)NCCCCCCCCCCCCCCC(=O)O)NC(=O)[C@H](CO)NC(=O)[C@H](C(C)(C)O)NC(=O)[C@H](CC2CCCCC2)NC(=O)[C@H](CCN)NC(=O)[C@@H](CC(C)C)NC(=O)[C@H](CCCN)NC(=O)[C@H](Cc2ccc(OCC(=O)O)cc2)NC(=O)[C@H](Cc2ccc(-c3ccccc3)cc2)NC(=O)[C@H](Cc2ccc(OCC(=O)O)cc2)NC(=O)[C@H](Cc2cccc(C(F)(F)F)c2)NC(=O)[C@H](CC(=O)O)NC(=O)[C@H](Cc2ccc(C(=O)O)cc2)NC1=O` [Compound 2902] ({CH2CO}-[Nva][Phe(4-COOH)]D[Phe(3-CF3)]Y(Carboxymethyl)[Bip]Y(Carboxymethyl)[Orn][dL][Dab][Cha][Val(3-OH)]SC[Dab][PEG4]-{NH(CH2)14COOH}; thioether N-14), the IC50 turned out to be 0.282 µM. Take `Cc1cccc(C[C@@H]2NC(=O)[C@H](CC(=O)O)NC(=O)[C@H](Cc3ccc(C(=O)O)cc3)NC(=O)[C@H](Cc3ccncc3)NC(=O)CSC[C@@H](C(=O)N[C@@H](CCN)C(=O)NCCOCCOCC(=O)NCCCCCCCCCCC(=O)O)NC(=O)[C@H](CO)NC(=O)[C@H](C(C)(C)O)NC(=O)[C@H](CC3CCCCC3)NC(=O)[C@H](CCN)NC(=O)[C@@H](CC(C)C)NC(=O)[C@H](CCCN)NC(=O)[C@H](CCC(N)=O)NC(=O)[C@H](Cc3ccc(-c4ccccc4)cc3)NC(=O)[C@H](Cc3ccc(C(N)=O)cc3)NC2=O)c1` [Compound 3778] ({CH2CO}-[4Pal][Phe(4-COOH)]D[Phe(3-Me)][Phe(4-CONH2)][Bip]Q[Orn][dL][Dab][Cha][Val(3-OH)]SC[Dab][AEEA][Aun]-OH; thioether N-14): the IC50 was determined as 0.0266 µM. The figure for `CC(C)C[C@H]1NC(=O)[C@H](CCCN)NC(=O)[C@H](Cc2ccc(O)cc2)NC(=O)[C@H](Cc2ccc(-c3ccccc3)cc2)NC(=O)[C@H](Cc2ccc(O)cc2)NC(=O)[C@H](Cc2c[nH]c3ccccc23)NC(=O)[C@H](CC(=O)O)NC(=O)[C@H](Cc2ccc(OCC(=O)O)cc2)NC(=O)[C@H](CN)NC(=O)CSC[C@@H](C(=O)N[C@@H](CCN)C(=O)NCCCCCCCCCCC(=O)O)NC(=O)[C@H](CCCCN)NC(=O)[C@H](Cc2ccc(O)cc2)NC(=O)[C@H](CC2CCCCC2)NC(=O)[C@H](CCN)NC1=O` [Compound 2509] ({CH2CO}-[Dap]Y(Carboxymethyl)DWY[Bip]Y[Orn][dL][Dab][Cha]YKC[Dab][Aun]-OH; thioether N-14) is 0.0598 µM; for `Cc1cccc(C[C@@H]2NC(=O)[C@H](CC(=O)O)NC(=O)[C@H](Cc3ccc(OCC(=O)O)cc3)NC(=O)[C@H](CN)NC(=O)CSC[C@@H](C(=O)N[C@@H](CCN)C(=O)NCCCCCCCCCCC(=O)O)NC(=O)[C@H](CO)NC(=O)[C@H](C(C)C)NC(=O)[C@H](CC3CCCCC3)NC(=O)[C@H](CCN)NC(=O)[C@@H](CC(C)C)NC(=O)[C@H](CCCN)NC(=O)[C@H](Cc3ccc(OCC(=O)O)cc3)NC(=O)[C@H](Cc3ccc(-c4ccccc4)cc3)NC(=O)[C@H](Cc3ccc(OCC(=O)O)cc3)NC2=O)c1` [Compound 2084] ({CH2CO}-[Dap]Y(Carboxymethyl)D[Phe(3-Me)]Y(Carboxymethyl)[Bip]Y(Carboxymethyl)[Orn][dL][Dab][Cha]VSC[Dab][Aun]-OH; thioether N-14) it is 0.0126 µM; for `Cc1cccc(C[C@@H]2NC(=O)[C@H](CC(=O)O)NC(=O)[C@H](Cc3ccc(OCC(=O)O)cc3)NC(=O)[C@H](CN)NC(=O)CSC[C@@H](C(=O)N[C@@H](CCN)C(=O)NCCCCCCCCCCC(=O)O)NC(=O)[C@@H]([C@H](C)O)NC(=O)[C@H](C(C)C)NC(=O)[C@H](CC3CCCCC3)NC(=O)[C@H](CCN)NC(=O)[C@@H](CC(C)C)NC(=O)[C@H](CCCN)NC(=O)[C@H](Cc3ccc(O)cc3)NC(=O)[C@H](Cc3ccc(-c4ccccc4)cc3)NC(=O)[C@H](Cc3ccc(O)cc3)NC2=O)c1` [Compound 2716] ({CH2CO}-[Dap]Y(Carboxymethyl)D[Phe(3-Me)]Y[Bip]Y[Orn][dL][Dab][Cha]V[dT]C[Dab][Aun]-OH; thioether N-14) it is 0.0243 µM.

On to `Cc1cccc(C[C@@H]2NC(=O)[C@H](CC(=O)O)NC(=O)[C@H](Cc3ccc(OCC(=O)O)cc3)NC(=O)[C@H](C3CNC3)NC(=O)CSC[C@@H](C(=O)N[C@@H](CCN)C(=O)NCCCCCCCCCCCCC(=O)O)NC(=O)[C@H](CO)NC(=O)[C@H](C(C)(C)O)NC(=O)[C@H](CC3CCCCC3)NC(=O)[C@H](CCN)NC(=O)[C@@H](CC(C)C)NC(=O)[C@H](CCCN)NC(=O)[C@H](Cc3ccc(OCC(=O)O)cc3)NC(=O)[C@H](Cc3ccc(-c4ccccc4)cc3)NC(=O)[C@H](Cc3ccc(OCC(=O)O)cc3)NC2=O)c1` [Compound 2256] ({CH2CO}-[X4]Y(Carboxymethyl)D[Phe(3-Me)]Y(Carboxymethyl)[Bip]Y(Carboxymethyl)[Orn][dL][Dab][Cha][Val(3-OH)]SC[Dab]-{NH(CH2)12COOH}; thioether N-14), for which the IC50 came out at 0.0136 µM.

For the compound `Cc1cccc(C[C@@H]2NC(=O)[C@H](CC(=O)O)NC(=O)[C@H](Cc3ccc(OCC(=O)O)cc3)NC(=O)[C@H](CCNC(=O)C(C)(C)C)NC(=O)CSC[C@@H](C(=O)N[C@@H](CCN)C(=O)NCCCCCCCCCCC(=O)O)NC(=O)[C@H](C(C)O)NC(=O)[C@H](C(C)(C)C)NC(=O)[C@H](CC3CCCCC3)NC(=O)[C@H](CCN)NC(=O)[C@@H](CC(C)C)NC(=O)[C@H](CCCN)NC(=O)[C@H](Cc3ccc(OCC(=O)O)cc3)NC(=O)[C@H](Cc3ccc(-c4ccccc4)cc3)NC(=O)[C@H](Cc3ccc(O)cc3)NC2=O)c1` (stereo partly drawn) [Compound 3517] ({CH2CO}-[Dab](Piv)Y(Carboxymethyl)D[Phe(3-Me)]Y[Bip]Y(Carboxymethyl)[Orn][dL][Dab][Cha][Tle][Thr(3ξ)]C[Dab][Aun]-OH; thioether N-14), the IC50 was 0.0279 µM.

For `Cc1cccc(C[C@@H]2NC(=O)[C@H](CC(=O)O)NC(=O)[C@H](Cc3ccc(OCC(=O)O)cc3)NC(=O)[C@H](Cc3ccc(OCC(=O)O)cc3)NC(=O)CSC[C@@H](C(=O)NCC(=O)N[C@@H](CCN)C(=O)NCC(=O)NCCCCCCCCCCC(=O)O)NC(=O)[C@H](CO)NC(=O)[C@H](C(C)C)NC(=O)[C@H](CC3CCCCC3)NC(=O)[C@H](CCN)NC(=O)[C@@H](CC(C)C)NC(=O)[C@H](CCCN)NC(=O)[C@H](C(C)C)NC(=O)[C@H](Cc3ccc(-c4ccccc4)cc3)NC(=O)[C@H](CC(C)C)NC2=O)c1` [Compound 1050] ({CH2CO}-Y(Carboxymethyl)Y(Carboxymethyl)D[Phe(3-Me)]L[Bip]V[Orn][dL][Dab][Cha]VSCG[Dab]G[Aun]-OH; thioether N-14), the IC50 was found to be 0.0209 µM.

Take `CC(C)C[C@H]1NC(=O)[C@H](CCCN)NC(=O)[C@H](Cc2ccc(O)cc2)NC(=O)[C@H](Cc2ccc(-c3ccccc3)cc2)NC(=O)[C@H](C(C)C)NC(=O)[C@H](Cc2c[nH]c3ccccc23)NC(=O)[C@H](CC(=O)O)NC(=O)[C@H](Cc2ccc(O)cc2)NC(=O)[C@H](Cc2ccncc2)NC(=O)CSC[C@@H](C(=O)N[C@@H](CCN)C(=O)NCCCCCCCCCCC(=O)O)NC(=O)[C@H](CCCN)NC(=O)[C@H](C(C)C)NC(=O)[C@H](CC2CCCCC2)NC(=O)[C@H](CCN)NC1=O` [Compound 2704] ({CH2CO}-[4Pal]YDWV[Bip]Y[Orn][dL][Dab][Cha]V[Orn]C[Dab][Aun]-OH; thioether N-14): the IC50 came to 0.0267 µM. The figure for `CC(=O)NCCCC[C@@H]1NC(=O)[C@H](Cc2ccc(-c3ccccc3)cc2)NC(=O)[C@H](Cc2ccc(OCC(=O)O)cc2)NC(=O)[C@H](Cc2cccc(C)c2)NC(=O)[C@H](CC(=O)O)NC(=O)[C@H](Cc2ccc(OCC(=O)O)cc2)NC(=O)[C@H](CCN)NC(=O)CSC[C@@H](C(=O)N[C@@H](CCN)C(=O)N[C@@H](CO)C(=O)NCCCCCCCCCCC(=O)O)NC(=O)[C@H](CO)NC(=O)[C@H](C(C)(C)O)NC(=O)[C@H](CC2CCCCC2)NC(=O)[C@H](CCN)NC(=O)[C@@H](CC(C)C)NC(=O)[C@H](CCCN)NC1=O` [Compound 3644] ({CH2CO}-[Dab]Y(Carboxymethyl)D[Phe(3-Me)]Y(Carboxymethyl)[Bip]K(Ac)[Orn][dL][Dab][Cha][Val(3-OH)]SC[Dab]S[Aun]-OH; thioether N-14) is 0.0188 µM; for `Cc1cccc(C[C@@H]2NC(=O)[C@H](CC(=O)O)NC(=O)[C@H](Cc3ccc(OCC(=O)O)cc3)NC(=O)[C@H](CN)NC(=O)CSC[C@@H](C(=O)N[C@@H](CCN)C(=O)NCCOCCOCC(=O)NCCCCCCCCCCC(=O)O)NC(=O)[C@H](CCCN)NC(=O)[C@H](C(C)C)NC(=O)[C@H](CC3CCCCC3)NC(=O)[C@H](CCN)NC(=O)[C@@H](CC(C)C)NC(=O)[C@H](CCCN)NC(=O)[C@H](C(C)C)NC(=O)[C@H](Cc3ccc(-c4ccccc4)cc3)NC(=O)[C@H](Cc3ccc(O)cc3)NC2=O)c1` [Compound 2582] ({CH2CO}-[Dap]Y(Carboxymethyl)D[Phe(3-Me)]Y[Bip]V[Orn][dL][Dab][Cha]V[Orn]C[Dab][AEEA][Aun]-OH; thioether N-14) it is 0.0095 µM.
